We go through 70 compounds from patent publication US20240254089A1, “MODULATORS OF MAS-RELATED G-PROTEIN RECEPTOR X4 AND RELATED PRODUCTS AND METHODS” (ESCIENT PHARMACEUTICALS, INC., priority 2020, published 2024).

For the experiment, the target named is T1, human MRGPR X4 (Homo sapiens, UniProt Q96LA9).
T1 construct: expressed in transfected cells
The experiment is described as follows: MRGPR X4 antagonist activity, IP-One Gq HTRF assay in stably transfected HEK cells. It counts as cell-based. The gist of the method:
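Human MRGPR X4-expressing HEK cells, 20,000/well, were incubated with compound (10-point curve, 10 uM top, 1:3 dilutions) plus agonist (10 μM bilirubin, 20 μM deoxycholic acid or 100 μM conjugated bilirubin) in Tris/NaCl/LiCl buffer, pH 8, for 1 h at 37 °C, then 30 min at room temperature. IP-1 was read by HTRF, and IC50 was taken from the HTRF ratio.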
For orientation: In TR-FRET formats the signal depends on donor and acceptor labels being close together.

[1] abbreviates: versus 20 μM deoxycholic acid agonist, HEK cells expressing human MRGPR X4, read-out: MRGPRX4 Antagonist Activity.

Where two headings read alike, the source gives them in different places. A value given as a limit tells only on which side of the number the result lay.

T1 sequence (Q96LA9 whole entry): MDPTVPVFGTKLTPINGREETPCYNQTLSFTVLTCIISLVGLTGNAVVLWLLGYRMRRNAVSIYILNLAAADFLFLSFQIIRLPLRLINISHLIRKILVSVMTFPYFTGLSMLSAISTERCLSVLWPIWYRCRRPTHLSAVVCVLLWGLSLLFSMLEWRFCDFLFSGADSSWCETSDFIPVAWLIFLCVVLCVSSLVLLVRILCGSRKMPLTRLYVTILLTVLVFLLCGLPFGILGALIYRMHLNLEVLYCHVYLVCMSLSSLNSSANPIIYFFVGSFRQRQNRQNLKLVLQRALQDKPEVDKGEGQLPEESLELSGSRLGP

`Cc1noc(C)c1CCCNC(=O)c1nn(Cc2ccc(Cl)cc2)c2ccccc12` [Compound 383] yielded an IC50 of 1000 to 2500 nM.

Turning to `CS(=O)(=O)NCCNC(=O)c1nn(Cc2ccc(Cl)cc2)c2ccccc12` [Compound 384], the IC50 under setting [1] is more than 2500 nM.

For `O=C(NCCC1CCS(=O)(=O)CC1)c1nn(Cc2ccc(Cl)cc2)c2ccccc12` [Compound 385], the IC50 was more than 2500 nM.

As for `O=C(NCc1ccnc2[nH]ccc12)c1nn(Cc2ccc(Cl)cc2)c2ccccc12` [Compound 386], the IC50 was more than 2500 nM.

As for `O=C(NCc1cccc2[nH]ncc12)c1nn(Cc2ccc(Cl)cc2)c2ccccc12` [Compound 387], the IC50 is more than 2500 nM.

As to `O=C(NCc1cnn2ccccc12)c1nn(Cc2ccc(Cl)cc2)c2ccccc12` [Compound 388], the IC50 was more than 2500 nM.

In turn, `Cn1nc(CNC(=O)c2nn(Cc3ccc(Cl)cc3)c3ccccc23)c2cccnc21` [Compound 389] registered an IC50 of more than 2500 nM.

With `O=C(NCC1CCS(=O)(=O)CC1)c1nn(Cc2ccc(Cl)cc2)c2ccccc12` [Compound 390], the IC50 under setting [1] was more than 2500 nM.

In turn, `Cn1cc2ccc(CNC(=O)c3nn(Cc4ccc(Cl)cc4)c4ccccc34)cc2n1` [Compound 391] registered an IC50 of 1000 to 2500 nM.

In the case of `Cn1ccc(CNC(=O)c2nn(Cc3ccc(Cl)cc3)c3ccccc23)cc1=O` [Compound 392], the IC50 was 1000 to 2500 nM.

For `O=C(NCc1nc2ccccc2o1)c1nn(Cc2ccc(Cl)cc2)c2ccccc12` [Compound 393], the IC50 was more than 2500 nM.

`O=C(NCc1cccnc1N1CCOCC1)c1nn(Cc2ccc(Cl)cc2)c2ccccc12` [Compound 395] registered an IC50 of more than 2500 nM.

On to `O=C(NCCc1c[nH]c2ccc(Cl)cc12)c1nn(Cc2ccc(Cl)cc2)c2ccccc12` [Compound 396], for which the IC50 was more than 2500 nM.

`Cn1c(CCNC(=O)c2nn(Cc3ccc(Cl)cc3)c3ccccc23)nc2ccccc21` [Compound 397]: the IC50 was 100 to 500 nM.

`O=C(NCCn1cncn1)c1nn(Cc2ccc(Cl)cc2)c2ccccc12` [Compound 398] returned an IC50 of more than 2500 nM.

Compound `CNC(=O)c1cccc(CNC(=O)c2nn(Cc3ccc(Cl)cc3)c3ccccc23)c1` [Compound 399] showed an IC50 of more than 2500 nM.

For the compound `O=C(NCCNC(=O)c1nn(Cc2ccc(Cl)cc2)c2ccccc12)c1ccccc1` [Compound 400], the IC50 lay within 100 to 500 nM.

Turning to `O=C(NCCC(=O)N1CCOCC1)c1nn(Cc2ccc(Cl)cc2)c2ccccc12` [Compound 401], the IC50 under setting [1] lay within 501 to 1000 nM.

`O=C(NCCc1nnc2ccccn12)c1nn(CCC2CCCCC2)c2ccccc12` [Compound 402, N-(2-([1,2,4]triazolo[4,3-a]pyridin-3-yl)ethyl)-1-(2-0cyclohexylethyl)-1H-indazole-3-carboxamide] showed an IC50 of 100 to 500 nM.

For `O=C(NCCC(=O)N1CCCC1)c1nn(Cc2ccc(Cl)cc2)c2ccccc12` [Compound 403], the IC50 lay in the range of 100 to 500 nM.

Compound `N#Cc1ccc(CNC(=O)c2nn(Cc3ccc(Cl)cc3)c3ccccc23)nc1` [Compound 404] registered an IC50 of 1000 to 2500 nM.

On to `O=C(NCc1ccnnc1)c1nn(Cc2ccc(Cl)cc2)c2ccccc12` [Compound 405], for which the IC50 is more than 2500 nM.

`O=C(NCCOc1ccncc1)c1nn(Cc2ccc(Cl)cc2)c2ccccc12` [Compound 406]: under setting [1], the IC50 was in the range of 1000 to 2500 nM.

With `O=C(NCCS(=O)(=O)c1ccccc1)c1nn(Cc2ccc(Cl)cc2)c2ccccc12` [Compound 407], the IC50 under setting [1] was 1000 to 2500 nM.

`N#Cc1ccc(Cn2nc(C(=O)NCCc3nnc4ccccn34)c3ccccc32)cc1` [Compound 408] displayed an IC50 of 100 to 500 nM.

The compound `N#Cc1ccccc1Cn1nc(C(=O)NCCc2nnc3ccccn23)c2ccccc21` [Compound 409] returned an IC50 of 1000 to 2500 nM.

As to `O=C(NCCc1nnc2ccccn12)c1nn(Cc2ccc(-c3ccccc3)cc2)c2ccccc12` [Compound 410], the IC50 under setting [1] is more than 2500 nM.

`O=C(NCCc1nnc2ccccn12)c1nn(Cc2cc3c(cc2Cl)OCO3)c2ccccc12` [Compound 411]: the IC50 was less than 100 nM.

`O=C(NCCc1nnc2ccccn12)c1nn(Cc2ccc3ccccc3n2)c2ccccc12` [Compound 412]: the IC50 lay in the range of 100 to 500 nM.

In the case of `CC(=O)c1ccc(Cn2nc(C(=O)NCCc3nnc4ccccn34)c3ccccc32)cc1` [Compound 413], the IC50 was 100 to 500 nM.

The compound `O=C(NCCc1nnc2ccccn12)c1nn(Cc2nnc(-c3ccccc3)o2)c2ccccc12` [Compound 414] gave an IC50 of 100 to 500 nM.

On to `CC(C)(C)c1cnc(Cn2nc(C(=O)NCCc3nnc4ccccn34)c3ccccc32)o1` [Compound 415], for which the IC50 lay within 501 to 1000 nM.

Compound `Cc1[nH]c2ccc(O)cc2c1CCNC(=O)c1nn(Cc2ccc(Cl)cc2)c2ccccc12` [Compound 416] displayed an IC50 of less than 100 nM.

In turn, `O=C(CNC(=O)c1nn(Cc2ccc(Cl)cc2)c2ccccc12)NCC(F)F` [Compound 418] yielded an IC50 of more than 2500 nM.

`O=C(NCCN1CCCCC1=O)c1nn(Cc2ccc(Cl)cc2)c2ccccc12` [Compound 419] came in with an IC50 of 100 to 500 nM.

`Cc1noc(CCNC(=O)c2nn(Cc3ccc(Cl)cc3)c3ccccc23)n1` [Compound 420] registered an IC50 of 1000 to 2500 nM.

The compound `Cc1cccn2cc(CNC(=O)c3nn(Cc4ccc(Cl)cc4)c4ccccc34)nc12` [Compound 421] came in with an IC50 of 501 to 1000 nM.

`CC(C)c1cc(CNC(=O)c2nn(Cc3ccc(Cl)cc3)c3ccccc23)on1` [Compound 422] displayed an IC50 of more than 2500 nM.

The compound `O=C(NCc1ccc2ccccc2n1)c1nn(Cc2ccc(Cl)cc2)c2ccccc12` [Compound 423] yielded an IC50 of more than 2500 nM.

`N#Cc1ccc2nc(CNC(=O)c3nn(Cc4ccc(Cl)cc4)c4ccccc34)cn2c1` [Compound 424] yielded an IC50 of 501 to 1000 nM.

`O=C(NCCCn1cnc2ccccc21)c1nn(Cc2ccc(Cl)cc2)c2ccccc12` [Compound 425] returned an IC50 of 1000 to 2500 nM.

In the case of `O=C(NCc1ccc(-n2ccnc2)cc1)c1nn(Cc2ccc(Cl)cc2)c2ccccc12` [Compound 426], the IC50 lay in the range of 1000 to 2500 nM.

Compound `O=C(NCc1ccc2nonc2c1)c1nn(Cc2ccc(Cl)cc2)c2ccccc12` [Compound 427] returned an IC50 of more than 2500 nM.

In turn, `Cn1cc2cccc(CNC(=O)c3nn(Cc4ccc(Cl)cc4)c4ccccc34)c2n1` [Compound 428] displayed an IC50 of more than 2500 nM.

Turning to `O=C(NCc1ncc(-c2ccccc2)[nH]1)c1nn(Cc2ccc(Cl)cc2)c2ccccc12` [Compound 429], the IC50 lay in the range of 501 to 1000 nM.

In turn, `COc1ccccc1Cn1nc(C(=O)NCCc2nnc3ccccn23)c2ccccc21` [Compound 430] showed an IC50 of more than 2500 nM.

Take `Cc1nc(Cn2nc(C(=O)NCCc3nnc4ccccn34)c3ccccc32)nc2ccccc12` [Compound 431]: the IC50 was 1000 to 2500 nM.

`O=C(NCCc1nnc2ccccn12)c1nn(Cc2ccc3ccccc3c2)c2ccccc12` [Compound 432] displayed an IC50 of less than 100 nM.

The compound `O=C(NCCc1nnc2ccccn12)c1nn(Cc2cccc3c2OCO3)c2ccccc12` [Compound 433] displayed an IC50 of 501 to 1000 nM.

The compound `COc1cccc(Cn2nc(C(=O)NCCc3nnc4ccccn34)c3ccccc32)n1` [Compound 434] returned an IC50 of 1000 to 2500 nM.

As for `CS(=O)(=O)c1ccccc1Cn1nc(C(=O)NCCc2nnc3ccccn23)c2ccccc21` [Compound 435], the IC50 under setting [1] is more than 2500 nM.

As to `O=C(NCCc1nnc2ccccn12)c1nn(Cc2ncc3cc(Cl)ccc3n2)c2ccccc12` [Compound 436], the IC50 lay within 100 to 500 nM.

Compound `CC(C)c1noc(Cn2nc(C(=O)NCCc3nnc4ccccn34)c3ccccc32)n1` [Compound 437] came in with an IC50 of 100 to 500 nM.

The compound `O=C(NCCc1nnc2ccccn12)c1nn(Cc2nc3ccccc3o2)c2ccccc12` [Compound 438] registered an IC50 of 100 to 500 nM.

`Cc1nc(Cn2nc(C(=O)NCCc3nnc4ccccn34)c3ccccc32)cs1` [Compound 439] had an IC50 of 100 to 500 nM.

Compound `O=C(NCCc1nnc2ccccn12)c1nn(Cc2ncco2)c2ccccc12` [Compound 440] registered an IC50 of more than 2500 nM.

In turn, `O=C(NCCc1nnc2ccccn12)c1nn(CCc2ccc(C(F)(F)F)cc2)c2ccccc12` [Compound 441] came in with an IC50 of 1000 to 2500 nM.

Consider `O=C(NCCc1nnc2ccccn12)c1nn(CCc2ccc(Cl)cc2)c2ccccc12` [Compound 442], for which the IC50 under setting [1] was more than 2500 nM.

Take `O=C(CCn1nc(C(=O)NCCc2nnc3ccccn23)c2ccccc21)c1ccc(F)cc1` [Compound 443]: the IC50 under setting [1] was more than 2500 nM.

`CN1CCN(CCCn2nc(C(=O)NCCc3nnc4ccccn34)c3ccccc32)CC1` [Compound 444] displayed an IC50 of more than 2500 nM.

For the compound `C#Cc1ccc(Cn2nc(C(=O)NCCc3nnc4ccccn34)c3ccccc32)cc1` [Compound 445, N-(2-([1,2,4]triazolo[4,3-a]pyridin-3-yl)ethyl)-1-(4-ethynylbenzyl)-1H-indazole-3-carboxamide], the IC50 lay in the range of 100 to 500 nM.

Turning to `N#Cc1cccc(Cn2nc(C(=O)NCCc3nnc4ccccn34)c3ccccc32)c1` [Compound 446], the IC50 lay within 1000 to 2500 nM.

As to `CCc1ccc(Cn2nc(C(=O)NCCc3nnc4ccccn34)c3ccccc32)cc1` [Compound 447], the IC50 fell in the range of 100 to 500 nM.

In turn, `COc1ccc(Cn2nc(C(=O)NCCc3nnc4ccccn34)c3ccccc32)nc1` [Compound 448] returned an IC50 of more than 2500 nM.

Turning to `Cc1c(Cn2nc(C(=O)NCCc3nnc4ccccn34)c3ccccc32)cccc1-c1ccccc1` [Compound 449], the IC50 fell in the range of 100 to 500 nM.

Regarding `Cc1nccn1-c1ccc(Cn2nc(C(=O)NCCc3nnc4ccccn34)c3ccccc32)cc1` [Compound 450], the IC50 under setting [1] is more than 2500 nM.

As to `CN(C)c1cccc(Cn2nc(C(=O)NCCc3nnc4ccccn34)c3ccccc32)c1` [Compound 451], the IC50 was in the range of 100 to 500 nM.

Consider `Cn1ncc2cc(Cn3nc(C(=O)NCCc4nnc5ccccn45)c4ccccc43)ccc21` [Compound 452], for which the IC50 lay within 501 to 1000 nM.

Compound `COc1ccc2ccccc2c1Cn1nc(C(=O)NCCc2nnc3ccccn23)c2ccccc21` [Compound 453] showed an IC50 of 1000 to 2500 nM.

As for `O=C(NCCc1nnc2ccccn12)c1nn(Cc2nccc3ccccc23)c2ccccc12` [Compound 454], the IC50 lay within 1000 to 2500 nM.
